Results reported in patent publication US7767803B2, “Stabilized aptamers to PSMA and their use as prostate cancer therapeutics” (Archemix Corp., priority 2002, dated 2010).
“Also recorded” adds a separate entry of the source. {C6-FAM} = fluorescein (C6-FAM) label; [invdT] = inverted (3'-3') thymidine; d = 2'-deoxy (DNA); m = 2'-O-methyl; r = 2'-OH (RNA); f = 2'-fluoro

Key:
LNCaP cells = test: Cell proliferation assay, chemiluminescent detection of BrdU; assay type: cell-based; settings: for effect on cell viability / cell killing (in words): LNCaP cells
Protocol: Effects on LNCaP cell viability were assessed in a cell proliferation assay based on chemiluminescent detection of BrdU described below (Cell Proliferation ELISA, BrdU (Roche, Indianapolis, Ind.). PC-3 cells were used as a control cell line.
Media from LNCaP (PSMA+) or PC3 (PSMA−) cells growing in 15 cm plates was aspirated off then cells were washed with 10 mL 1×PBS. Cells were trypsinized for 30 sec at 37° C. Following trypsinization, 8 mL 10% FBS media was used to quench trypsin. […] Following spin the media was aspirated off and the cell pellet was re-suspended with 10 mL complete media. The cell density was adjusted to 200,000 cells/mL. 50 μl of cells/well was added to collagen coated black 96-well plates (10,000 cells/well). […] Following overnight incubation 25 μl of media, aptamer or antibody was added to each well with the final volume in the well being 100 μl and incubated at 37° C. in 5% CO2 for designated time length. […] After 2 days 20 μl BrdU labeling reagent (100×) is mixed with 2 mL of complete media. […] After incubation, the media was removed, and the assay was completed following the manufacturer's protocol: 200 μl/well FixDenat solution was added to each well and incubated for 30 min at RT. Following removal of FixDenat solution 100 μl anti-BrdU POD Fab fragment solution (Luminol/4-iodophenol) was added to each well and incubated for 90 min at RT. After incubation anti-BrdU POD solution was removed and plates were washed with 200 μl/well of washing solution three times with 5 min RT incubations. 100 μl of substrate solution was added to each well and cells were incubated for 3 min at RT in the dark. The plates were read using a luminescence program with a 1 sec count on a Packard TopCount Microplate Scintillation and Luminescence Counter.

ECD PSMA = target: T1, ECD PSMA (Homo sapiens, UniProt Q04609); test: Dot blot binding assay (nitrocellulose filtration)
T1 construct: N-terminal linker […]; made in house; host or cells: 293 Freestyle cells, pSecTag2B vector
T1 sequence (Q04609 with tags, fused parts or gaps): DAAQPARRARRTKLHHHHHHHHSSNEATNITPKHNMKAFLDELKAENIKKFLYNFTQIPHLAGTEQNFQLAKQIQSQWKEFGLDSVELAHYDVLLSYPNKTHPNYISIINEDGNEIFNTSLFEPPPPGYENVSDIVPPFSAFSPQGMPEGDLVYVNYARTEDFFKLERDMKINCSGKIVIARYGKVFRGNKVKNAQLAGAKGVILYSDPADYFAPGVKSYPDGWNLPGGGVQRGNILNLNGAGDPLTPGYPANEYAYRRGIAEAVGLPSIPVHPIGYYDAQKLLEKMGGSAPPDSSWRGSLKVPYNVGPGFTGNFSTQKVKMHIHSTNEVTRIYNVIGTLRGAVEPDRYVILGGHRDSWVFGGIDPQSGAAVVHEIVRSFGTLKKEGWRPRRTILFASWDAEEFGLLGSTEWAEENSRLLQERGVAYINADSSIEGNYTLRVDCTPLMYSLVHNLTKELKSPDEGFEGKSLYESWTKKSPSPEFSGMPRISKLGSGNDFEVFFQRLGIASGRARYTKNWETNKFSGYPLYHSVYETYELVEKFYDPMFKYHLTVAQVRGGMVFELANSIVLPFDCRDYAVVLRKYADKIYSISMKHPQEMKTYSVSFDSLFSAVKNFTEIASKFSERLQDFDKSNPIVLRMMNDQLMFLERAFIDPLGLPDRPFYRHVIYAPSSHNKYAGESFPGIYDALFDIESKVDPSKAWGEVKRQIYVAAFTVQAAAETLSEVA
Protocol: The binding reactions are then analyzed by nitrocellulose filtration using a Minifold I dot-blot, 96-well vacuum filtration manifold (Schleicher & Schuell, Keene, N.H.) (dot blot binding assay). A three-layer filtration medium is used, consisting (from top to bottom) of Protran nitrocellolose (Schleicher & Schuell), Hybond-P nylon (Amersham Biosciences, Piscataway, N.J.) and GB002 gel blot paper (Schleicher & Schuell). The nitrocellulose layer, which selectively binds protein over nucleic acid, preferentially retains the anti-PSMA aptamer in complex with a protein ligand, while non-complexed anti-PSMA aptamer passes through the nitrocellulose and adhered to the nylon (the gel blot paper is included as a supporting medium for the other filters). Following filtration, the filter layers are separated, dried and exposed on a phosphor screen (Amersham Biosciences) and quantified using a Storm 860 Phosphorimager® blot imaging system (Amersham Biosciences) and KD values are calculated by fitting the equation y=(max/(1+K/protein))+yint.
Dot Blot Binding Analysis. […]
In order to identify the core structural elements required for ARC955 binding to PSMA, the 3′-boundaries of the clone was determined through alkaline hydrolysis. […] The KD and maximum % bound for the 3 minimized constructs with the overall highest PSMA affinity, as determined by a dot blot binding assay, are listed in Table 4. […]

LNCaP cells (PSMA+) = test: LNCaP FACS assay with fluorescein-labeled aptamers; assay type: cell-based; settings: FACS analysis
Excerpt: The parent A9 aptamer sequence (SEQ ID NO 168) is predicted by the MFOLD algorithm implemented in the RNAStructure program v. 4.11 to fold into a partially mismatched hairpin that encompasses almost the entire molecule. A series of truncated constructs were designed, in which self-pairing nucleotides from the 5′- and 3′-ends were simultaneously removed, chemically synthesized using conventional solid-phase phosphoramidite-based synthesis, and tested. In the design of some of the truncated A9 aptamers, see e.g. ARC591, additional bases were added to the 3′ and 5′ ends of the truncate, where the bases added to the 5′ end were capable of forming Watson-Crick base pairs with those added to the 3′ end thereby increasing the length of stem structure. Truncated aptamers were 5′-labeled with fluorescein and tested for binding in to LNCaP cells (PSMA+) in the FACS assay described below. PC-3 cells (PSMA−) were used as a control cell line. The sequences of the truncated A9 aptamers designed are listed below in Table 6 below.
To accomplish 5′-fluorescein labeling, aptamers were synthesized with a 5′-amine and then modified post-solid phase synthesis. The required aptamer was dissolved to a concentration of ˜10-50 mg/mL in 25 mM phosphate buffer, pH 7.4. The small molecule, NHS ester of fluorescein, was dissolved to a concentration of 10 mg/mL in DMSO. 1.5 Molar equivalents were added to the aptamer and the solution vortexed for ˜15 seconds. The reaction was allowed to proceed in the dark at room temperature for 1 hour and then a 5 μL aliquot was withdrawn, diluted with water and analyzed by HPLC. Additional equivalents of the small molecule were added until the reaction was complete by HPLC. Excess small molecules were removed by gel filtration.
To prepare aptamers for the FACS assay, PSMA aptamers were serially diluted (0-1 uM) in FACS buffer (1×DPBS w/Ca^++/Mg^++ (Gibco, Carlsbad, Calif.) supplemented with 10 mg/mL salmon sperm DNA & 0.2% Na Azide), in a V-bottom 96 well plate, at the concentrations to be tested. LNCaP and PC-3 cells (ATCC, Manassas, Va.) were harvested with trypsin, and 200,000 cells/well were counted, washed once with 1×DPBS (with Ca^++ and Mg^++) and resuspended in 200 μl of FACS Buffer. The 200 μl of cells in FACS buffer were added to individual wells of a new 96 well plate, pelleted by centrifugation (1300 rpm for 5 minutes), and resuspended in 100 μl of the appropriate concentration of diluted aptamer. FACS buffer, c-PSMA antibody (3C6) (Northwest Biotherapeutics, Bothell, Wash., Cat #: 60-5002) and an irrelevant fluorescein isothiocyanate (“FITC”) mouse IgG1 isotype control antibody (BD Pharmingen, San Diego, Calif., Cat#: 554679) were used as controls. The wells of aptamer/cell mixture were incubated at room temperature for 20-30 minutes. […]

PSMA NAALADase activity = PSMA NAALADase activity (Homo sapiens, UniProt Q04609); test: NAALADase inhibition assay; assay type: biochemical; settings: relative to parent aptamer
PSMA NAALADase activity, sequence (Q04609 with tags, fused parts or gaps limits assumed): as the sequence (Q04609 with tags, fused parts or gaps) above
Protocol: These point mutant constructs were assessed for activity in terms of inhibition of PSMA NAALADase activity. The NAALADase assay was performed in 96 well format. PSMA aptamers were serially diluted in 1× reaction buffer (40 mM Tris-HCl, pH 7.4, 0.1 mM ZnSO4, 0.1 mg/mL BSA) in a standard 96 well plate to be tested at a final concentration range from 30 pM to 1 μM. The enzyme was prepared by diluting 30 μL of 100 nM PSMA into 8 mL of reaction buffer, and kept cool on ice. The substrate was prepared by adding 19 μl of NAAG [Glutamate-3,4-^3H], 50.8 Ci/mmol, 19.7 μM (Perkin-Elmer, Wellesley, Mass., NET1082) into 2.2 mL of reaction buffer.
Following preparation of all reagents, 4 μl of each serially diluted aptamer was added to a separate 96 well plate (the reaction plate). 76 μl of diluted enzyme was added to the corresponding wells containing aptamer. 80 μl of reaction buffer was added to one column of wells to serve as a background control. The diluted substrate and reaction plate were then moved to a room at 37° C. and allowed to equilibrate for 10 minutes. […]
To separate the cleavage products, […] and Glutamate, from the substrate, an AG 1-×8, 200-400 mesh, formate resin (BioRad, Hercules, Calif., # 140-1454) was used. […] The plate was sealed and read using a Packard Topcount Microplate Scintillation Counter. […]

O=c1c(-c2ccc(O)cc2)coc2cc(O)cc(O)c12 [Genistein, reference compound]
cytotoxicity at 25 μM (LNCaP cells; positive control, 25 μM dose): partial inhibition
cytotoxicity at 150 μM (LNCaP cells; positive control, 150 μM): complete cell killing

AGAGGAGAGAACGUUCUACUAUGGGUGGCUGGGAGGGG (2'-O-methyl at ACU, RNA at G, backbone not given here) [ARC1091, rGmH minimer of ARC955]
PSMA binding (in words) (ECD PSMA): maintains the full binding capacity

C6 FAM-GGAGGACCGAAAAAGACCUGACUUCUAUACUAAGUCUACGUUCCUCC-3T (GGAGGACCGAAAAAGACCUGACUUCUAUACUAAGUCUACGUUCCUCCT; 5' FAM label and 3' inverted dT, sugar chemistry not clearly assigned, further chemistry not given here) [ARC710, fluorescently labeled A9 minimer]
competition with fluorescently labeled anti-PSMA antibody for binding to the surface of LNCaP cells (LNCaP cells (PSMA+)): effectively competes

CUACUACACAUGGGUCGGGUGAGUGGCAAAGGAAUAGUAG (2'-O-methyl at ACU, RNA at G, backbone not given here) [ARC725]
PSMA binding (in words) (ECD PSMA): no intrinsic PSMA binding; also recorded: not to exhibit PSMA binding

UAAUACGACUCACUAUAGGGAGAGGAGAGAACGUUCUACUAUGGGUGGCUGGGAGGGGAAGAGGGAGUAGGUCGAUCGAUCGAUCAUCGAUG [ARC955]
effect on cell viability / cell killing (in words) (LNCaP cells): no intrinsic effect on cell viability at any concentration

c6 fam-mCmGmGmAfCfCmGAAAAmAmGmAmCfCfUGAfCfUfUfCfUAfUAfCfUAAmGmUmCmUAfCmGfUmUmCmCmG-3T (CGGACCGAAAAAGACCUGACUUCUAUACUAAGUCUACGUUCCG; sugars from the 5' end mmmmffmrrrrmmmmffrrfffffrfrffrrmmmmrfmfmmmm, [invdT] at 3' end, 5' {C6-FAM}, backbone not given here) [ARC711, fluorescently labeled A9 minimer]
competition with fluorescently labeled anti-PSMA antibody for binding to the surface of LNCaP cells (LNCaP cells (PSMA+)): effectively competes

mCmGmGmACmGAAAAmAmGmAmCfCfUGAfCfUfUfCfUAfUAfCfUAAmGmUmCmUAfCmGfUmUmCmCmG-3T [ARC942]
effect on cell viability / cell killing (in words) (LNCaP cells): no intrinsic effect on cell viability at any concentration

mCmGmGmAfCfCmGdAdAfCmAmAmGmGmCfCfU-s-dGmAfCfUfUfCfUmAfUmAfCfUdAmAmGmCmCmUmAfCmGfUmUmCmCmG-3T (CGGACCGAACAAGGCCUGACUUCUAUACUAAGCCUACGUUCCG; sugars from the 5' end mmmmffmddfmmmmmffdmfffffmfmffdmmmmmmfmfmmmm, [invdT] at 3' end, backbone not given here; internal -s- element between two units) [ARC1725]
NAALADase inhibition activity (in words) (PSMA NAALADase activity): retained full activity
